The target of assay [1] is T1, GGH (Homo sapiens, UniProt Q92820, T151I).
T1 sequence (Q92820 25-318 T151I): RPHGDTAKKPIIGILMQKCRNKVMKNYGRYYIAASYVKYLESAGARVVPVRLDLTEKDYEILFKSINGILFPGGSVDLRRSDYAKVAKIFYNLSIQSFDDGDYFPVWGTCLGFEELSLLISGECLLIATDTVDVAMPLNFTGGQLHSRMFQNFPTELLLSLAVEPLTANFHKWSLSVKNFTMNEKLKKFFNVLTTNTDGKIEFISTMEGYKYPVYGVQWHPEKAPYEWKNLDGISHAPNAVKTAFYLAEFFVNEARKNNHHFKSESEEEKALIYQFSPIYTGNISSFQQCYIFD
The settings on record: MTXPG2 as the substrate; reported by Chave et al. 2003; cited from earlier work.

For assay [2], the target named is T2, T127I variant GGH (Homo sapiens, UniProt Q92820, T151I).
T2 construct: A cDNA encoding the 294 amino acids of human GGH (with out leading peptide) was cloned by RT-PCR; made in house; host or cells: E. coli BL21(DE3)pLysS
T2 sequence (Q92820 25-318 T151I): T1 sequence (Q92820 25-318 T151I)
As to the kind of experiment: Enzyme kinetic analysis of heterologously expressed wild-type and T127I variant GGH with MTX-PG as substrate. The assay is classed as biochemical. The settings on record: recombinant GGH, substrate as labelled; for catalytic efficiency (Vmax/Km) reduction of T127I variant: versus wild-type, p=0.003. The protocol:
Wild-type human GGH cloning and site-directed mutagenesis: A cDNA encoding the 294 amino acids of human GGH (with out leading peptide) was cloned by RT-PCR and TA cloning (Invitrogen, Carlsbad, Calif.) using RNA isolated from human CEM cells. Plasmid DNA was purified using the mini prep kit (Qiagen, Santa Clarita, Calif.). After sequencing, the selected cDNA clone was subcloned into the pET28b vector (Novagen, Madison, Wis.) from Nde1 and BamH1 sites, and an N-terminal HisTag was added. This HisTag enabled the purification of large quantities of protein and had no effect on GGH activity (Chave, K. J. et al., 2000, id). Site-directed mutagenesis was performed with the QuickChange II kit (Stratagene, La Jolla, Calif.) according to the manufacturer's protocol. The primers used for mutagenesis of wild-type human GGH to T127I were
Expression and characterization of T127I variant GGH: Plasmids carrying wild-type and T127I variant GGH were used to transform E. coli strain BL21(DE3)pLysS competent cells (Novagen, Madison, Wis.). The E. coli cells were grown in LB medium containing 30 μg/ml kanamycin and 34 μg/ml chloramphenicol at 37° C. to OD600 about 0.6 and expression was induced with 1 mM isopropyl-β-D-thiogalactoside for 3 h. Cells were harvested by centrifugation at 5,000 g for 5 min at 4° C., and were kept as a frozen pellet at −70° C. Target proteins were extracted using BugBuster His-Bind Purification kit (Novagen, Madison, Wis.), followed by gel filtration chromatography at 4° C. on a HiLoad 26/60 S200 Superdex column (Amersham Pharmacia Biotech, Sweden) in 0.05 M sodium acetate buffer, pH5.5, containing 0.05 M 2-mercaptoethanol, 1 M NaCl, and 1 mM EDTA. Fractions containing target proteins were pooled and proteins were concentrated using Viva Cell 70 ml Concentrator, followed by Viva Cpin 2 ml Concentrator (Vivascience, Edgewood, NY).
Wild-type and T127I variant forms of human GGH were separated using NuPAGE™ 4-12% Bis-Tris Gel (Invitrogen, Carlsbad, Calif.). Protein bands were visualized by silver staining (Amersham Pharmacia Biotech, Sweden). Western blot was carried out as described (Tai, H. L. et al., “Thiopurine S-methyltransferase deficiency: two nucleotide transitions define the most prevalent mutant allele associated with loss of catalytic activity in Caucasians” Am J Hum Genet 58:694-702 (1996)). Polyclonal anti-human GGH rabbit antibody was kindly provided by Drs Thomas J. Ryan and […]. GGH activity was measured using MTEN buffer with 25 mM DTT. The assay mixture without substrate was incubated at 37° C. for 20 min, followed by incubation with substrate at 37° C. for 5 min and boiling for 5 min. In each experiment, wild-type and variant GGH were analyzed in parallel using varying concentrations of MTX-PG5 or MTX-PG2 as substrate. The substrate and the reaction products were analyzed by HPLC, and GGH activity was calculated by total amount of product formed per min per μg protein. Two independent experiments were carried on with each substrate. Nonlinear least-squares regression was used to estimate Km and Vmax by fitting a Michaels-Menten model as described earlier (Panetta, J. C. et al., id).

In the case of `CN(Cc1cnc2nc(N)nc(N)c2n1)c1ccc(C(=O)N[C@@H](CCC(=O)N[C@@H](CCC(=O)O)C(=O)O)C(=O)O)cc1` [MTX-PG2], the “effect of T127I mutation on GGH activity” value in assay [1] is listed as “did not change GGH activity”. Also, in assay [2], the “difference in Km between the wild-type and T127I variant” value is “not a significant difference”; the “difference in Vmax between the wild-type and T127I variant” value is “not a significant difference”; the “difference in catalytic efficiency between the wild-type and T127I variant” value is given as “not a significant difference”.
For the compound `CN(Cc1cnc2nc(N)nc(N)c2n1)c1ccc(C(=O)N[C@@H](CCC(=O)N[C@@H](CCC(=O)N[C@@H](CCC(=O)N[C@@H](CCC(=O)N[C@@H](CCC(=O)O)C(=O)O)C(=O)O)C(=O)O)C(=O)O)C(=O)O)cc1` [MTX-PG5], in assay [2], the “difference in Vmax between the wild-type and T127I variant” value is recorded as “not a significant difference”; the “catalytic efficiency (Vmax/Km) reduction of T127I variant” value turned out to be 67%. Also, in assay [2] (p=0.021), the “Km increase of T127I variant compared to wild-type GGH” value is 2.7 fold. Moreover, the “catalytic efficiency (Vmax/Km) reduction of T127I variant” value in assay [2] (listed as MTXPG5) amounted to 67.5%.

(Values after patent US7741032B2, “Genotyping assay to predict gamma glutamyl hydrolase (GGH) activity” (St. Jude Children's Research Hospital, Inc., priority 2004, dated 2010).)
